# According to patent publication US5084462A, “4-quinoline carboxylic acid derivatives useful as immunosuppressive agents” (The Du Pont Merck Pharmaceutical Company, priority 1990, dated 1992):
# Read-outs that look alike come from different tables or passages of the source.
# Legend:
# [1] = tested on: contact sensitivity response to 2,4-dinitrofluorobenzene (DNFB); experiment: Contact sensitivity response to 2,4-dinitrofluorobenzene (DNFB) in mice; assay type: in vivo, Balb/c female mice; conditions: for inhibition in vivo at 1 mg/kg: 1.0 mg/kg oral
# Protocol: This is an antigen-specific T-cell mediated inflammatory response that represents delayed-type hypersensitivity reactions seen in both humans and other mammals.
# Balb/c female mice (.perspectiveto.20g, Charles River) were sensitized on the shaved abdomen with 25 μl of 0.5% 2,4-dinitrofluorobenzene ([…], Eastman Kodak Co.) in a vehicle of 4:1 acetone:olive oil on days 0 and 1. Mice were ear challenged with 20 μl of 0.2% DNFB in a vehicle of 4:1 acetone:olive oil on day 5. A constant area of the ears was measured immediately before challenge and 24 hours later with an engineer's micrometer. Ear swelling was expressed as the difference in ear thickness before and after challenge in units of 10^-4 inches±SEM. Percent suppression was calculated as: [formula] […] Negative controls were not sensitized on days 0 and 1 but were ear challenged on day 5. Ten mice were used per group.
# [2] = tested on: human mixed lymphocyte reaction; experiment: Human mixed lymphocyte reaction (3H-thymidine incorporation); assay type: cell-based; conditions: Table 4, human PBMC of two donors, 6 days
# Description: Contact sensitivity to DNFB has teen extensively studied and characterized in the mouse to determine the regulatory mechanisms involved in cell mediated immune responses (Claman, et al., Immunol Rev 50:105, 1980). This is an antigen-specific T-cell mediated inflammatory response that represents delayed-type hypersensitivity reactions seen in both humans and other mammals. The primary use of the human mixed lymphocyte reaction is for the determination of transplantation compatibility between the donor (graft) and the recipient (Park and Good, p. 71. In Yunis, et al., Tissue typing and organ transplantation. 1973 Academic Press Inc., N.Y.).
# Blood was obtained by venipuncture from two nonrelated human donors. Peripheral blood mononuclear cells (PBMC) were isolated from these samples by using the Leuco Prep procedure (Becton-Dickinson). PBMC were washed twice in phosphate buffered saline (without calcium and magnesium) and the separate cell isolations were adjusted to the appropriate concentrations in media (RPMI 1640) supplemented with 10% human AB serum and […] gentamicin. Cells from donor A (2×10^5) were incubated with cells from donor B (2×10^5) in 96 well round bottom microliter plates at 37° C., 5% CO2 for 6 days. Eighteen hours prior to harvesting cells from the plates, all wells were pulsed with 1 μCi of ^3 H-thymidine. Cells from the plates were harvested on day 6 and ^3 H-thymidine incorporation was determined using a scintillation counter.
# [3] = Mus musculus, po, 24 h, Table 3, ear swelling, 20.0 mg/kg oral, read-out: % Suppression
smiles,measurement,setting,value
Cc1c(-c2ccc(Oc3ccccc3)cc2)nc2ccc(F)cc2c1C(=O)O [Example 3],inhibition in vivo at 20 mg/kg,[1]; [3],83.5%
same,"Ear Swelling (units ± SEM), increase in ear thickness from day 5 to day 6","[1]; Table 3, 20.0 mg/kg oral",14.25 ± 1.49 10^-4 inches
Cc1c(-c2ccc(Sc3ccccc3)cc2)nc2ccc(Cl)cc2c1C(=O)O [Example 8],"Ear Swelling (units ± SEM), increase in ear thickness from day 5 to day 6","[1]; Table 3, 20.0 mg/kg oral",63.25 ± 3.58 10^-4 inches
same,% Suppression,"[1]; Table 3, ear swelling, 20.0 mg/kg oral, 20 mg/kg",13.98%
Cc1c(-c2ccc(-c3ccc(O)cc3)cc2)nc2ccc(Cl)cc2c1C(=O)O [Example 12],inhibition in vivo at 20 mg/kg,[1]; [3],26.3%
same,"Ear Swelling (units ± SEM), increase in ear thickness from day 5 to day 6","[1]; Table 3, 20.0 mg/kg oral",54.58 ± 3.21 10^-4 inches
"COc1ccc2c(c1)c(CC(=O)O)c(C)n2C(=O)c1ccc(Cl)cc1 [Indomethacin, reference compound]",IC50,[2],> 1000 nM
"C[C@@H]1C[C@H]2[C@@H]3CCC4=CC(=O)C=C[C@]4(C)[C@@]3(F)[C@@H](O)C[C@]2(C)[C@@]1(O)C(=O)CO [Dexamethasone, reference compound]",inhibition in vivo at 0.2 mg/kg,"[1]; Mus musculus, po, 24 h, Table 2, ear swelling, 0.2 mg/kg oral, read-out: % Suppression",28.8%
same,inhibition in vivo at 1 mg/kg,"[1]; Mus musculus, po, 24 h, Table 2, ear swelling, read-out: % Suppression",44.3%
same,inhibition in vivo at 5 mg/kg,"[1]; Mus musculus, po, 24 h, Table 2, ear swelling, 5.0 mg/kg oral, read-out: % Suppression",68.6%
same,inhibition in vivo at 10 mg/kg,"[1]; Mus musculus, po, 24 h, Table 2, ear swelling, 10.0 mg/kg oral, read-out: % Suppression",79.9%
same,inhibition in vivo at 1 mg/kg,"[1]; Mus musculus, po, 24 h, Table 3, ear swelling, read-out: % Suppression",43.8%
same,ED50,"[1]; Mus musculus, Table 2, suppression of ear swelling, oral, days -2 through 6, read-out: ED50",1.5 mg/kg
same,"Ear Swelling (units ± SEM), increase in ear thickness from day 5 to day 6","[1]; Table 2, 0.2 mg/kg oral",52.95 ± 3.39 10^-4 inches
same,"Ear Swelling (units ± SEM), increase in ear thickness from day 5 to day 6","[1]; Table 2, 1.0 mg/kg oral",41.60 ± 2.46 10^-4 inches
same,"Ear Swelling (units ± SEM), increase in ear thickness from day 5 to day 6","[1]; Table 2, 5.0 mg/kg oral",23.79 ± 2.71 10^-4 inches
same,"Ear Swelling (units ± SEM), increase in ear thickness from day 5 to day 6","[1]; Table 2, 10.0 mg/kg oral",15.50 ± 2.10 10^-4 inches
same,"Ear Swelling (units ± SEM), increase in ear thickness from day 5 to day 6","[1]; Table 3, 1.0 mg/kg oral",42.20 ± 2.61 10^-4 inches
COc1c(-c2ccc(-c3ccccc3)cc2)nc2ccc(F)cc2c1C(=O)O [Example 11],inhibition in vivo at 20 mg/kg,[1]; [3],74.1%
same,"Ear Swelling (units ± SEM), increase in ear thickness from day 5 to day 6","[1]; Table 3, 20.0 mg/kg oral",20.85 ± 2.53 10^-4 inches
Cc1c(-c2ccc(-c3ccc(Br)cc3)cc2)nc2ccc(F)cc2c1C(=O)O [Example 4],inhibition in vivo at 20 mg/kg,[1]; [3],87%
same,"Ear Swelling (units ± SEM), increase in ear thickness from day 5 to day 6","[1]; Table 3, 20.0 mg/kg oral",11.80 ± 1.03 10^-4 inches
